Results from patent US20260022142A1, “MACROCYCLIC IMMUNOMODULATORS” (Bristol-Myers Squibb Company, priority 2022, published 2026).
Bridge positions count the residues as written; N and C are the ends. Square brackets hold non-standard residues; d marks the D form. Peptide text beside a SMILES is read from it. * marks the point of attachment. ξ: configuration not given here. Phe(4-CONH2) = NC(=O)c1ccc(C[C@H](N)C(=O)O)cc1; Phe(4-COOH) = N[C@@H](Cc1ccc(C(=O)O)cc1)C(=O)O; Bip = N[C@@H](Cc1ccc(-c2ccccc2)cc1)C(=O)O; Ala(2-furyl) = N[C@@H](Cc1ccco1)C(=O)O; Phe(3-Me) = Cc1cccc(C[C@H](N)C(=O)O)c1; Val(3-OH) = CC(C)(O)[C@H](N)C(=O)O; 4Pal = N[C@@H](Cc1ccncc1)C(=O)O; Cha = N[C@@H](CC1CCCCC1)C(=O)O; Thr(3ξ) = CC(O)[C@H](N)C(=O)O; Carboxymethyl = O=C(O)C*; Orn = NCCC[C@H](N)C(=O)O; Aun = NCCCCCCCCCCC(=O)O; Dab = NCC[C@H](N)C(=O)O; AEEA = NCCOCCOCC(=O)O

Target: T1, PD-1/PD-L1 interaction (PE-labeled human PD-L1-Ig binding to Jurkat cell line over-expressing human PD-1) (Homo sapiens, UniProt Q15116)
T1 construct: expressed in transfected cells; host or cells: Jurkat
Test: Jurkat-PD-1 Cell Binding High-Content Screening Assay (CBA)
Assay type: cell-based
Details: Jurkat cell line over-expressing human PD-1; PE-labeled PD-L1-Ig 20 nM final; read-out: Jurkat hPD1-PDL1 IC50
Method in brief: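 Binding of fluorescent PD-L1-Ig (20 nM final) to Jurkat-PD-1 cells was measured by automated imaging after 1 h, following a 2 h compound pre-treatment at 37° C.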

T1 sequence (Q15116 25-288): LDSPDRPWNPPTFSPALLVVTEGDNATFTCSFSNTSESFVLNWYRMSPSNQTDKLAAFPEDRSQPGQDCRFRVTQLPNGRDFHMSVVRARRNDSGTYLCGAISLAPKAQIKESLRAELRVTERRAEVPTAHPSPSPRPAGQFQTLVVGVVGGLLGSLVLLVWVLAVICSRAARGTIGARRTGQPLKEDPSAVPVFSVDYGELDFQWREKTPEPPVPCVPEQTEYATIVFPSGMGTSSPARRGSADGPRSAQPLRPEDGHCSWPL

SMILES | IC50 [nM]
CC(=O)NCC[C@@H]1NC(=O)[C@H](C(C)C)NC(=O)[C@H](CC2CCCCC2)NC(=O)[C@H](CCN)NC(=O)[C@@H](CC(C)C)NC(=O)[C@H](CCC(=O)O)NC(=O)[C@H](C(C)C)NC(=O)[C@H](Cc2ccc(-c3ccccc3)cc2)NC(=O)[C@H](CC(C)C)NC(=O)[C@H](Cc2c[nH]c3ccccc23)NC(=O)[C@H](CC(=O)O)NC(=O)[C@H](Cc2ccc(OCC(=O)O)cc2)NC(=O)[C@H](C(C)O)NC(=O)CSC[C@@H](C(=O)NCCOCCOCC(=O)NCCCCCCCCCCC(=O)O)NC1=O (stereo partly drawn) [Compound 3710] ({CH2CO}-[Thr(3ξ)]Y(Carboxymethyl)DWL[Bip]VE[dL][Dab][Cha]V[Dab](Ac)C[AEEA][Aun]-OH; thioether N-14) | 82.2
CC(=O)NCC[C@@H]1NC(=O)[C@H](C(C)C)NC(=O)[C@H](CC2CCCCC2)NC(=O)[C@H](CCN)NC(=O)[C@@H](CC(C)C)NC(=O)[C@H](CCC(=O)O)NC(=O)[C@H](C(C)C)NC(=O)[C@H](Cc2ccc(-c3ccccc3)cc2)NC(=O)[C@H](CC(C)C)NC(=O)[C@H](Cc2c[nH]c3ccccc23)NC(=O)[C@H](CC(=O)O)NC(=O)[C@H](Cc2ccc(OCC(=O)O)cc2)NC(=O)[C@H](Cc2ccc(OCC(=O)O)cc2)NC(=O)CSC[C@@H](C(=O)NCCOCCOCC(=O)NCCCCCCCCCCC(=O)O)NC1=O [Compound 3711] ({CH2CO}-Y(Carboxymethyl)Y(Carboxymethyl)DWL[Bip]VE[dL][Dab][Cha]V[Dab](Ac)C[AEEA][Aun]-OH; thioether N-14) | 91.5
Cc1cccc(C[C@@H]2NC(=O)[C@H](CC(=O)O)NC(=O)[C@H](Cc3ccc(OCC(=O)O)cc3)NC(=O)[C@H](Cc3ccncc3)NC(=O)CSC[C@@H](C(=O)N[C@@H](CCN)C(=O)NCCCCCCCCCCC(=O)O)NC(=O)[C@H](CO)NC(=O)[C@H](C(C)(C)O)NC(=O)[C@H](CC3CCCCC3)NC(=O)[C@H](CCN)NC(=O)[C@@H](CC(C)C)NC(=O)[C@H](CCCN)NC(=O)[C@H](Cc3ccc(C(=O)O)cc3)NC(=O)[C@H](Cc3ccc(-c4ccccc4)cc3)NC(=O)[C@H](Cc3ccc(C(=O)O)cc3)NC2=O)c1 [Compound 3712] ({CH2CO}-[4Pal]Y(Carboxymethyl)D[Phe(3-Me)][Phe(4-COOH)][Bip][Phe(4-COOH)][Orn][dL][Dab][Cha][Val(3-OH)]SC[Dab][Aun]-OH; thioether N-14) | 129
Cc1cccc(C[C@@H]2NC(=O)[C@H](CC(=O)O)NC(=O)[C@H](Cc3ccc(OCC(=O)O)cc3)NC(=O)[C@H](CCN)NC(=O)CSC[C@@H](C(=O)N[C@@H](CCN)C(=O)NCCCCCCCCCCC(=O)O)NC(=O)[C@H](CO)NC(=O)[C@H](C(C)(C)O)NC(=O)[C@H](CC3CCCCC3)NC(=O)[C@H](Cc3c[nH]cn3)NC(=O)[C@@H](CC(C)C)NC(=O)[C@H](CCCN)NC(=O)[C@H](Cc3ccc(OCC(=O)O)cc3)NC(=O)[C@H](Cc3ccc(-c4ccccc4)cc3)NC(=O)[C@H](Cc3ccc(C(=O)O)cc3)NC2=O)c1 [Compound 3714] ({CH2CO}-[Dab]Y(Carboxymethyl)D[Phe(3-Me)][Phe(4-COOH)][Bip]Y(Carboxymethyl)[Orn][dL]H[Cha][Val(3-OH)]SC[Dab][Aun]-OH; thioether N-14) | 12.4

Results, then the molecule that gave them:

IC50 [nM] | SMILES
165 | Cc1cccc(C[C@@H]2NC(=O)[C@H](CC(=O)O)NC(=O)[C@H](Cc3ccc(OCC(=O)O)cc3)NC(=O)[C@H](Cc3ccncc3)NC(=O)CSC[C@@H](C(=O)N[C@@H](CCN)C(=O)NCCCCCCCCCCC(=O)O)NC(=O)[C@H](CO)NC(=O)[C@H](C(C)(C)O)NC(=O)[C@H](CC3CCCCC3)NC(=O)[C@H](CCN)NC(=O)[C@@H](CC(C)C)NC(=O)[C@H](CCCN)NC(=O)[C@H](Cc3ccc(C(=O)O)cc3)NC(=O)[C@H](Cc3ccc(-c4ccccc4)cc3)NC(=O)[C@H](Cc3ccc(C(=O)O)cc3)NC2=O)c1 [Compound 3716] ({CH2CO}-[4Pal]Y(Carboxymethyl)D[Phe(3-Me)][Phe(4-COOH)][Bip][Phe(4-COOH)][Orn][dL][Dab][Cha][Val(3-OH)]SC[Dab][Aun]-OH; thioether N-14)
5 | Cc1cccc(C[C@@H]2NC(=O)[C@H](CC(=O)O)NC(=O)[C@H](Cc3ccc(OCC(=O)O)cc3)NC(=O)[C@H](Cc3ccncc3)NC(=O)CSC[C@@H](C(=O)N[C@@H](CCN)C(=O)NCCCCCCCCCCC(=O)O)NC(=O)[C@H](CO)NC(=O)[C@H](C(C)(C)O)NC(=O)[C@H](CC3CCCCC3)NC(=O)[C@H](CCN)NC(=O)[C@@H](CC(C)C)NC(=O)[C@H](CCCN)NC(=O)[C@H](Cc3ccc(O)cc3)NC(=O)[C@H](Cc3ccc(-c4ccccc4)cc3)NC(=O)[C@H](Cc3ccc(C(N)=O)cc3)NC2=O)c1 [Compound 3717] ({CH2CO}-[4Pal]Y(Carboxymethyl)D[Phe(3-Me)][Phe(4-CONH2)][Bip]Y[Orn][dL][Dab][Cha][Val(3-OH)]SC[Dab][Aun]-OH; thioether N-14)
8.8 | Cc1cccc(C[C@@H]2NC(=O)[C@H](CC(=O)O)NC(=O)[C@H](Cc3ccc(OCC(=O)O)cc3)NC(=O)[C@H](C(C)O)NC(=O)CSC[C@@H](C(=O)N[C@@H](CCN)C(=O)NCCCCCCCCCCC(=O)O)NC(=O)[C@H](CO)NC(=O)[C@H](C(C)(C)O)NC(=O)[C@H](CC3CCCCC3)NC(=O)[C@H](CCN)NC(=O)[C@@H](CC(C)C)NC(=O)[C@H](CCCN)NC(=O)[C@H](Cc3ccc(O)cc3)NC(=O)[C@H](Cc3ccc(-c4ccccc4)cc3)NC(=O)[C@H](Cc3ccc(C(N)=O)cc3)NC2=O)c1 (stereo partly drawn) [Compound 3718] ({CH2CO}-[Thr(3ξ)]Y(Carboxymethyl)D[Phe(3-Me)][Phe(4-CONH2)][Bip]Y[Orn][dL][Dab][Cha][Val(3-OH)]SC[Dab][Aun]-OH; thioether N-14)
29.8 | Cc1cccc(C[C@@H]2NC(=O)[C@H](CC(=O)O)NC(=O)[C@H](Cc3ccc(OCC(=O)O)cc3)NC(=O)[C@H](Cc3ccco3)NC(=O)CSC[C@@H](C(=O)N[C@@H](CCN)C(=O)NCCCCCCCCCCC(=O)O)NC(=O)[C@H](CO)NC(=O)[C@H](C(C)(C)O)NC(=O)[C@H](CC3CCCCC3)NC(=O)[C@H](CCN)NC(=O)[C@@H](CC(C)C)NC(=O)[C@H](CCCN)NC(=O)[C@H](Cc3ccc(O)cc3)NC(=O)[C@H](Cc3ccc(-c4ccccc4)cc3)NC(=O)[C@H](Cc3ccc(C(N)=O)cc3)NC2=O)c1 [Compound 3719] ({CH2CO}-[Ala(2-furyl)]Y(Carboxymethyl)D[Phe(3-Me)][Phe(4-CONH2)][Bip]Y[Orn][dL][Dab][Cha][Val(3-OH)]SC[Dab][Aun]-OH; thioether N-14)
11.7 | Cc1cccc(C[C@@H]2NC(=O)[C@H](CC(=O)O)NC(=O)[C@H](Cc3ccc(OCC(=O)O)cc3)NC(=O)[C@H](C(C)O)NC(=O)CSC[C@@H](C(=O)N[C@@H](CCN)C(=O)NCCCCCCCCCCC(=O)O)NC(=O)[C@H](CO)NC(=O)[C@H](C(C)(C)O)NC(=O)[C@H](CC3CCCCC3)NC(=O)[C@H](Cc3cnc[nH]3)NC(=O)[C@@H](CC(C)C)NC(=O)[C@H](CCCN)NC(=O)[C@H](Cc3ccc(OCC(=O)O)cc3)NC(=O)[C@H](Cc3ccc(-c4ccccc4)cc3)NC(=O)[C@H](Cc3ccc(OCC(=O)O)cc3)NC2=O)c1 (stereo partly drawn) [Compound 3720] ({CH2CO}-[Thr(3ξ)]Y(Carboxymethyl)D[Phe(3-Me)]Y(Carboxymethyl)[Bip]Y(Carboxymethyl)[Orn][dL]H[Cha][Val(3-OH)]SC[Dab][Aun]-OH; thioether N-14)
